The results in this text go back to ChEMBL document CHEMBL4351011, “Design, synthesis and biological evaluations of 2-amino-4-(1-piperidine) pyridine derivatives as novel anti crizotinib-resistant ALK/ROS1 dual inhibitors” (Eur J Med Chem, 2019).

The target of experiment [1] is T1, ALK tyrosine kinase receptor (Homo sapiens, UniProt Q9UM73).
Target sequence in this assay (Q9UM73 whole entry): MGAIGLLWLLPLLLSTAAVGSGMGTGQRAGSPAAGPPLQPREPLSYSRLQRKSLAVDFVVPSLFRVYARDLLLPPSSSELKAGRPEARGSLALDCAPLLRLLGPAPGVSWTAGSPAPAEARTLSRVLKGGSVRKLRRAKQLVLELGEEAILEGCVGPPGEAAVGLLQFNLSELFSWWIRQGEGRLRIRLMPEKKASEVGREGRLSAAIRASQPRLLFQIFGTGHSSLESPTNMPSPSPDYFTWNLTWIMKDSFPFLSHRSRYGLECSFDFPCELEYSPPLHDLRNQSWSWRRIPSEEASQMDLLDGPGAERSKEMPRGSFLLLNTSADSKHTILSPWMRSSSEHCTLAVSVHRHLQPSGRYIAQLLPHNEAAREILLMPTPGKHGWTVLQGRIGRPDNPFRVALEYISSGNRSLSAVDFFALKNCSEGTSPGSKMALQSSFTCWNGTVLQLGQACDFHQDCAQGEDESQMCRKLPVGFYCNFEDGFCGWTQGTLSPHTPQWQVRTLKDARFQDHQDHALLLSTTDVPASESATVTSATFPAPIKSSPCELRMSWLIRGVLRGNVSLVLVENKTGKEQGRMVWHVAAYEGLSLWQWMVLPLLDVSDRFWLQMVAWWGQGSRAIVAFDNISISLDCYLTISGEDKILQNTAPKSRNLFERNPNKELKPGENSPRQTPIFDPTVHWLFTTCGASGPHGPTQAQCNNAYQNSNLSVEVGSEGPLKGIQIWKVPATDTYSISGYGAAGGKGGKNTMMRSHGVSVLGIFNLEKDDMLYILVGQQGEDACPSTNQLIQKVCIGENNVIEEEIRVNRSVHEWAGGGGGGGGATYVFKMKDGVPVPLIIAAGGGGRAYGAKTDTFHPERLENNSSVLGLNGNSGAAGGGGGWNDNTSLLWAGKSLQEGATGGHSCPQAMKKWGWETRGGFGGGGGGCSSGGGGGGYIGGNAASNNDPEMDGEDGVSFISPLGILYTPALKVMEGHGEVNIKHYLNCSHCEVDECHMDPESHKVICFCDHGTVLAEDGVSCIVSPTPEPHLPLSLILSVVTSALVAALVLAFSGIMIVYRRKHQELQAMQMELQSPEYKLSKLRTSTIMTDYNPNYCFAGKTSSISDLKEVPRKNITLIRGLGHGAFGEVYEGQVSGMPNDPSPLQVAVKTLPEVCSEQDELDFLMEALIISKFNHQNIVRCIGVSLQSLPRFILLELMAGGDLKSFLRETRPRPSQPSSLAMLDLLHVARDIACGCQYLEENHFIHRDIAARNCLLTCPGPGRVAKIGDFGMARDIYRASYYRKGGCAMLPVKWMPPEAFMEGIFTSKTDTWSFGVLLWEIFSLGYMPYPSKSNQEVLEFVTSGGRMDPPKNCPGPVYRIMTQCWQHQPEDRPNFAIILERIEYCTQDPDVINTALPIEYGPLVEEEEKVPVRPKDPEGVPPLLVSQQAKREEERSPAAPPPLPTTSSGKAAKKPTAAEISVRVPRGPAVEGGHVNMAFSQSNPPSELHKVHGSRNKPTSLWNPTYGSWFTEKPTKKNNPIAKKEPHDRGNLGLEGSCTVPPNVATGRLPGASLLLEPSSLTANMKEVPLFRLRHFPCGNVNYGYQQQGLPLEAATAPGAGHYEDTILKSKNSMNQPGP
In experiment [2] the target is T1, ALK tyrosine kinase receptor. To be noted: at 1 µM.
Experiment [3] has as its system A549. In words: cells. To be noted: Homo sapiens, A549, 72 h.
For experiment [4], the system named is HCC78. Put plainly: cells. To be noted: Homo sapiens, HCC78, 72 h.
Description: Antiproliferative activity against ROS1-addicted human HCC78 cells assessed as reduction in cell viability incubated for 72 hrs by MTT assay
For experiment [5], the target named is T2, Proto-oncogene tyrosine-protein kinase ROS (Homo sapiens, UniProt P08922).
Experiment [6] concerns NCI-H3122. Put plainly: cells. To be noted: Homo sapiens, NCI-H3122, 72 h.
Description: Antiproliferative activity against ALK-addicted human NCI-H3122 cells assessed as reduction in cell viability incubated for 72 hrs by MTT assay
The target of experiment [7] is T2, Proto-oncogene tyrosine-protein kinase ROS. The source holds these as a separate data set.
Experiment [8] concerns the target Insulin-like growth factor 1 receptor (Homo sapiens) (UniProt P08069). Put plainly: Inhibition of IGF1R (unknown origin) at 1 uM.
For experiment [9], the target named is Mitogen-activated protein kinase 9 (Homo sapiens) (UniProt P45984). Put plainly: Inhibition of MAPK9 (unknown origin) at 1 uM.
Experiment [10] addresses Epidermal growth factor receptor (Homo sapiens) (UniProt P00533). In words: Inhibition of EGFR (unknown origin) at 1 uM.
In experiment [11] the target is Leukocyte tyrosine kinase receptor (Homo sapiens) (UniProt P29376). In words: Inhibition of LTK (unknown origin) at 1 uM.
In experiment [12] the target is Activated CDC42 kinase 1 (Homo sapiens) (UniProt Q07912). Put plainly: Inhibition of TNK2 (unknown origin) at 1 uM.
Experiment [13] has as its system BaF3. Put plainly: cells. To be noted: Mus musculus, BaF3, 72 h.
Description: Antiproliferative activity against mouse BAF3 cells expressing CD74/ROS1 G2032R mutant assessed as reduction in cell viability incubated for 72 hrs by CCK8 assay
Experiment [14] concerns ALK tyrosine kinase receptor (Homo sapiens), Q9UM73 [C1156Y]. The settings on record: at 1 µM.
In experiment [15] the target is Vascular endothelial growth factor receptor 2 (Homo sapiens) (UniProt P35968). Put plainly: Inhibition of KDR (unknown origin) at 1 uM.
Experiment [16] relates to BaF3. In words: cells. The settings on record: Mus musculus, BaF3, 72 h. This is another data set of the same source.
Description: Antiproliferative activity against mouse BAF3 cells expressing CD74/ROS1 L2026M mutant assessed as reduction in cell viability incubated for 72 hrs by CCK8 assay
The target of experiment [17] is Tyrosine-protein kinase Fer (Homo sapiens) (UniProt P16591). In words: Inhibition of FER (unknown origin) at 1 uM.
In experiment [18] the test system is ALK tyrosine kinase receptor (Homo sapiens), Q9UM73 [F1174L]. To be noted: at 1 µM.
For experiment [19], the target named is Tyrosine-protein kinase JAK2 (Homo sapiens) (UniProt O60674). Put plainly: Inhibition of JAK2 (unknown origin) at 1 uM.
In experiment [20] the test system is BaF3. In words: cells. The settings on record: Mus musculus, BaF3, 72 h. This is another data set of the same source.
Description: Antiproliferative activity against mouse BAF3 cells expressing wild type CD74/ROS1 assessed as reduction in cell viability incubated for 72 hrs by CCK8 assay
In experiment [21] the test system is BaF3. In words: Potency index, ratio of crizotinib IC50 to compound IC50 for mouse BAF3 cells expressing CD74/ROS1 G2032R mutant incubated for 72 hrs by CCK8 assay. Type of experiment: functional. (Tetrazolium assays rely on reduction of a dye to a coloured formazan, in cell work by metabolically active cells.)
Experiment [22] relates to ALK tyrosine kinase receptor (Homo sapiens), Q9UM73 [L1196M]. Put plainly: Potency index, ratio of crizotinib IC50 to compound IC50 for ALK L1196M mutant (unknown origin) at 1 uM.
Experiment [23] has as its target Hepatocyte growth factor receptor (Homo sapiens) (UniProt P08581). Put plainly: Inhibition of MET (unknown origin) at 1 uM.
Experiment [24] concerns the target Tyrosine-protein kinase Fes/Fps (Homo sapiens) (UniProt P07332). In words: Inhibition of FES (unknown origin) at 1 uM.
In experiment [25] the target is CDK2/Cyclin A2 (Homo sapiens) (UniProt P24941+P20248). Put plainly: Inhibition of CDK2/cyclinA (unknown origin) at 1 uM. Type of experiment: protein-complex assay.
The subject of experiment [26] is ALK tyrosine kinase receptor (Homo sapiens), Q9UM73 [R1275Q]. To be noted: at 1 µM.
The target in experiment [27] is ALK tyrosine kinase receptor (Homo sapiens, UniProt Q9UM73, L1196M).
Description: Inhibition of ALK L1196M mutant (unknown origin) at 1 uM
The target of experiment [28] is Serine/threonine-protein kinase Nek2 (Homo sapiens) (UniProt P51955). In words: Inhibition of NEK2 (unknown origin) at 1 uM.
Experiment [29] has as its target Tyrosine-protein kinase BTK (Homo sapiens) (UniProt Q06187). Put plainly: Inhibition of BTK (unknown origin) at 1 uM.
Experiment [30] deals with ALK tyrosine kinase receptor (Homo sapiens), Q9UM73 [L1196M]. The settings on record: at 1 µM.
Description: Inhibition of ALK L1196M mutant (unknown origin) at 1 uM relative to control
Experiment [31] addresses Proto-oncogene tyrosine-protein kinase receptor Ret (Homo sapiens) (UniProt P07949). Put plainly: Inhibition of RET (unknown origin) at 1 uM.

T2 sequence (P08922 whole entry): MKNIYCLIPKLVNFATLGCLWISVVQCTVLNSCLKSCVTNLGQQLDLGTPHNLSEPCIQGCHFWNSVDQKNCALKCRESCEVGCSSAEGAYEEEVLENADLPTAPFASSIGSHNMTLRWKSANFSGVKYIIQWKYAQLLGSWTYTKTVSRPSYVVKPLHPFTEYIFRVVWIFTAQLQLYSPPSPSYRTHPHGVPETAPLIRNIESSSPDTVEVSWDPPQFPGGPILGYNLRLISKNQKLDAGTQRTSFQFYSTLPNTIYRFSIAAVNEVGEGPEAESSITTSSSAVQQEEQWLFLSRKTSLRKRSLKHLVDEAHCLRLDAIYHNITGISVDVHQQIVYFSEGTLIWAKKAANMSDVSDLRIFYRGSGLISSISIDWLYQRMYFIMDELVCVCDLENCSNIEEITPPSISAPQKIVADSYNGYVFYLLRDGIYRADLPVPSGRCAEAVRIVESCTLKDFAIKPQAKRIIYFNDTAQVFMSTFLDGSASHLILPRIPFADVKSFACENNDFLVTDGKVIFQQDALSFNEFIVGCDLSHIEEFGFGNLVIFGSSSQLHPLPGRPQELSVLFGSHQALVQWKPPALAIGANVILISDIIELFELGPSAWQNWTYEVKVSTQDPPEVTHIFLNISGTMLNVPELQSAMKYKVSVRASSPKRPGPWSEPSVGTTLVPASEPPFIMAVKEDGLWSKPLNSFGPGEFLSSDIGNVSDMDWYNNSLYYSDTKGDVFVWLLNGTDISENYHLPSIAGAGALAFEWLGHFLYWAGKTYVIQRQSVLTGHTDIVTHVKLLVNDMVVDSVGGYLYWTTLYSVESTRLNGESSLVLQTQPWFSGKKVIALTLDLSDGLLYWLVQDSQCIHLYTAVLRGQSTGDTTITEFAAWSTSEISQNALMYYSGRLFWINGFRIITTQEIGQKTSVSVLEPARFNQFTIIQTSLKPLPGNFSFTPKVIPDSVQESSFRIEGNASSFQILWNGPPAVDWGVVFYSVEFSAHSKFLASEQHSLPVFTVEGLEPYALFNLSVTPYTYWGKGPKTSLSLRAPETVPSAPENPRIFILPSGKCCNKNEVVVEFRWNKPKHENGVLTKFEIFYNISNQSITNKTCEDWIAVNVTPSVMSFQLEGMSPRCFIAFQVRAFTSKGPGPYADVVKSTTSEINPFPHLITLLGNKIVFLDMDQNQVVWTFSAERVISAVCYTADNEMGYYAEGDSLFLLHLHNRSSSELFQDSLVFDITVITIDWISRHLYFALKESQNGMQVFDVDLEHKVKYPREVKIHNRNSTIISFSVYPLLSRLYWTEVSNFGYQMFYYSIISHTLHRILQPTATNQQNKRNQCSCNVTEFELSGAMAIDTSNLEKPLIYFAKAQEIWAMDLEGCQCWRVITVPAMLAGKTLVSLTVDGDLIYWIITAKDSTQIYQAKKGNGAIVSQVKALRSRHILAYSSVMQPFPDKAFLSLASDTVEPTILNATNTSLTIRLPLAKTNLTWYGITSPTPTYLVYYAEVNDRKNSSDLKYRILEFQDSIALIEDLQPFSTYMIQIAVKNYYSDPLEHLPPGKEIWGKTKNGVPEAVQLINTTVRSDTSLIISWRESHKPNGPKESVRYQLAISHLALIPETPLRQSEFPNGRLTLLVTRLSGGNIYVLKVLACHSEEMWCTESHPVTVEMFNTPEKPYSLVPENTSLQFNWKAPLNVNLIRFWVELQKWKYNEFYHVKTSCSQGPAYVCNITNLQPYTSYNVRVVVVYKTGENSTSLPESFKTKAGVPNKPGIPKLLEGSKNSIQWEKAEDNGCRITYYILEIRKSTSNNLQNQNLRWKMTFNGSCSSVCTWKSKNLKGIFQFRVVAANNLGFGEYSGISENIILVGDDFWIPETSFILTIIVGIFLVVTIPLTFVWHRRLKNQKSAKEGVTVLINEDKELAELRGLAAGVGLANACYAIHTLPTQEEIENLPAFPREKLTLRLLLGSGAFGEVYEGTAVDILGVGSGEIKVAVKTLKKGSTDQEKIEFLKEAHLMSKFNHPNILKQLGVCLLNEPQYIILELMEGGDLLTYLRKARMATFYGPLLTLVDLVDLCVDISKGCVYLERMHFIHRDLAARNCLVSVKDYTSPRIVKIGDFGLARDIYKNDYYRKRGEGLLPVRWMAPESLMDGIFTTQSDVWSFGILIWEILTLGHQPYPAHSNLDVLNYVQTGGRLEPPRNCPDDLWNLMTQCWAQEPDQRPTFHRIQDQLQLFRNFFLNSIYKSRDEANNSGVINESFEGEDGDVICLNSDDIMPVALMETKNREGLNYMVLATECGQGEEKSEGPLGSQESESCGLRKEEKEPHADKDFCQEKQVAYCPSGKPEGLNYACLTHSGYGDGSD
ALK tyrosine kinase receptor (Homo sapiens), Q9UM73 [L1196M], sequence (Q9UM73 whole entry L1196M, looked up): as the sequence (Q9UM73 whole entry) above, with L1196M counted along it
Mitogen-activated protein kinase 9 (Homo sapiens), sequence (P45984 whole entry, looked up): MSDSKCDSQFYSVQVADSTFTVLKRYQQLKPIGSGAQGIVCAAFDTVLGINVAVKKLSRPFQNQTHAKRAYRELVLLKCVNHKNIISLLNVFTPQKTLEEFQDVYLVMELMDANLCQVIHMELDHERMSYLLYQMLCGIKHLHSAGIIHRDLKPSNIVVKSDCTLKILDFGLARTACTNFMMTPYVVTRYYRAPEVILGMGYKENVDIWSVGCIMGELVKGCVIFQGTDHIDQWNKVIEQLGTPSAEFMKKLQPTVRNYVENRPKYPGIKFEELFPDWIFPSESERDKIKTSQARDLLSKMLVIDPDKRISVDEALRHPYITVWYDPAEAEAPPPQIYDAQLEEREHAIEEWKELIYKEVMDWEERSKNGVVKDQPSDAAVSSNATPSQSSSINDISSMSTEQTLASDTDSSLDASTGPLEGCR
ALK tyrosine kinase receptor (Homo sapiens), Q9UM73 [F1174L], sequence (Q9UM73 whole entry F1174L): as the sequence (Q9UM73 whole entry) above, with F1174L counted along it
ALK tyrosine kinase receptor (Homo sapiens), Q9UM73 [C1156Y], sequence (Q9UM73 whole entry C1156Y, looked up): as the sequence (Q9UM73 whole entry) above, with C1156Y counted along it
ALK tyrosine kinase receptor (Homo sapiens), Q9UM73 [R1275Q], sequence (Q9UM73 whole entry R1275Q): as the sequence (Q9UM73 whole entry) above, with R1275Q counted along it
Serine/threonine-protein kinase Nek2 (Homo sapiens), sequence (P51955 whole entry): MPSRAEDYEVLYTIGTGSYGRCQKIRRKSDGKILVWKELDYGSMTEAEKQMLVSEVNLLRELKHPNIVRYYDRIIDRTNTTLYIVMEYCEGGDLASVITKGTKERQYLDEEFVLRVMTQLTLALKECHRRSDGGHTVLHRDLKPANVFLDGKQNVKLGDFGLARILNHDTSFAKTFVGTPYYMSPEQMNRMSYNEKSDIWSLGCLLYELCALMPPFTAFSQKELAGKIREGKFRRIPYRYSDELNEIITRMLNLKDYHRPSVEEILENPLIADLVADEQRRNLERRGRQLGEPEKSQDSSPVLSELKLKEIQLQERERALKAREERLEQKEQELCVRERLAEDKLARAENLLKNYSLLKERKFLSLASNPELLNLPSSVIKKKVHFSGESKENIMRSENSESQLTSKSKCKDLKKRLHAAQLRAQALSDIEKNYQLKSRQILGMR

By IC50 is commonly meant the concentration that gives 50% inhibition. The inhibition is the drop in the measured response relative to a control, in per cent. In the case of `COc1cc(N2CCNCC2)ccc1Nc1cc(N2CCC[C@@H](C(=O)NCc3ccc(OC(F)(F)F)cc3)C2)ccn1`, the IC50 in experiment [1] amounted to 0.56 µM; in experiment [3], 5.11 µM; in experiment [4], 25.3 µM; in experiment [5], 1.21 µM; in experiment [6] it was 10.7 µM. For the same compound, the inhibition in [2] was found to be 76%.
Consider `COc1cc(N2CCN(C)CC2)ccc1Nc1cc(N2CCC[C@H](C(=O)NCc3ccc(OC(F)(F)F)cc3)C2)ccn1`, for which the IC50 in experiment [3] came out at 7.79 µM; in [4], 14.9 µM; in experiment [5] it was 1.08 µM; in experiment [6] it was 7.53 µM.
With `Cc1cc(Nc2cc(N3CCC[C@H](C(=O)NCc4ccc(OC(F)(F)F)cc4)C3)ccn2)ccc1NC1CCN(C)CC1`, the IC50 in experiment [3] is 7.07 µM; in experiment [4] it was 7.76 µM; in experiment [5], greater than 10 µM; in [6], 5.1 µM.
Turning to `COc1cc(N2CCC(N3CCN(C)CC3)CC2)ccc1Nc1cc(N2CCC[C@@H](C(=O)NCc3ccc(OC(F)(F)F)cc3)C2)ccn1`, the IC50 in experiment [3] is 2.79 µM; in experiment [4], 10.9 µM; in experiment [5] it was greater than 10 µM; in experiment [6] it was 8.86 µM.
For `Cc1nn(C)cc1Nc1cc(N2CCC[C@@H](C(=O)NCc3ccc(OC(F)(F)F)cc3)C2)ccn1`, the IC50 stood at 9.74 µM in experiment [3], 80.7 µM in experiment [4], 7.3 µM in experiment [5] and 13.9 µM in experiment [6].
The like results for `COc1cc(N2CCC(N3CCN(C)CC3)CC2)ccc1Nc1cc(N2CCC[C@H](C(=O)NCc3ccc(OC(F)(F)F)cc3)C2)ccn1` were, in that order, 6.6 µM, 11 µM, 2.26 µM and 16.6 µM.
On to `COc1cc(N2CCC(N3CCOCC3)CC2)ccc1Nc1cc(N2CCC[C@H](C(=O)NCc3ccc(OC(F)(F)F)cc3)C2)ccn1`, for which the IC50 was 6.93 µM in experiment [3], 15.2 µM in experiment [4], 3.39 µM in experiment [5] and 5.81 µM in experiment [6].
As to `COc1cc(N2CCC(N3CCOCC3)CC2)ccc1Nc1cc(N2CCC[C@@H](C(=O)NCc3ccc(OC(F)(F)F)cc3)C2)ccn1`, the IC50 in [3] is 6.45 µM; in [4], 13.7 µM; in experiment [5], greater than 10 µM; in experiment [6], 8.3 µM.
In the case of `COc1ccc(CNC(=O)[C@H]2CCCN(c3ccnc(Nc4cnn(C5CCNCC5)c4)c3)C2)cc1OC`, the half-inhibitory concentration (IC50) in [3] was greater than 100 µM; in experiment [4] it was 83.7 µM; in experiment [7], “Not Active”; in experiment [6], 51.7 µM.
The matching figures for `COc1ccc(CNC(=O)[C@H]2CCCN(c3ccnc(Nc4cn(C)nc4C)c3)C2)cc1OC`: greater than 100 µM, greater than 100 µM, “Not Active” and greater than 100 µM.
As to `CN1CCC(n2cc(Nc3cc(N4CCC[C@H](C(=O)NCc5ccc(C#N)cc5)C4)ccn3)cn2)CC1`, the IC50 in [3] is 53.8 µM; in experiment [4] it was 87.6 µM; in experiment [7], “Not Active”; in experiment [6], 15.1 µM.
Regarding `O=C(NCc1ccc(OC(F)(F)F)cc1)[C@H]1CCCN(c2ccnc(Nc3ncccn3)c2)C1`, the IC50 in experiment [3] was 17.2 µM; in experiment [4], 36.5 µM; in [7] it was “Not Active”; in [6] it was 44.3 µM.
For `COc1cc(N2CCNCC2)ccc1Nc1cc(N2CCC[C@H](C(=O)NCc3ccc(OC(F)(F)F)cc3)C2)ccn1`, the inhibition in [8] was 3%; in [9], -10%; in [10], 11%; in experiment [11], 91%; in experiment [12], -3%; in [2], 95%. Moreover, the inhibition in experiment [14] was 100%; in [15], -3%; in [17], 6%; in experiment [18], 80%; in experiment [19], 11%; in experiment [23], 6%. Further, the inhibition was -1% in [24]; 1% in experiment [25]; 92% in [26]; -7% in experiment [28]; -5% in experiment [29]; 93% in experiment [30]. For the same compound, the inhibition in [31] is -3%. For the same compound, the IC50 in [1] amounted to 0.174 µM; in [13], 0.105 µM; in experiment [3], 3.64 µM; in experiment [16], 0.234 µM; in [4], 10.7 µM; in experiment [20] it was 0.138 µM. Moreover, the IC50 in [5] turned out to be 0.53 µM; in experiment [6] it was 6.45 µM; in experiment [27], 0.0413 µM. Besides, the “Ratio IC50” value in experiment [21] is 6; in experiment [22], 2.
With `COc1ccc(CNC(=O)[C@H]2CCCN(c3ccnc(Nc4cnn(C)c4)c3)C2)cc1OC`, the half-inhibitory concentration (IC50) in experiment [3] was greater than 100 µM; in experiment [4], greater than 100 µM; in [7], “Not Active”; in experiment [6], greater than 100 µM.
Regarding `Cc1ccc(CNC(=O)[C@H]2CCCN(c3ccnc(Nc4cn(C)nc4C)c3)C2)cc1`, the IC50 is 39.6 µM in [3], 67.2 µM in experiment [4], “Not Active” in experiment [7] and 40.7 µM in experiment [6].
With `Cc1nn(C)cc1Nc1cc(N2CCC[C@H](C(=O)NCc3ccc(OC(F)(F)F)cc3)C2)ccn1`, the half-inhibitory concentration (IC50) was found to be 11.3 µM in experiment [3], 34.6 µM in experiment [4], 1.26 µM in experiment [5] and 20.2 µM in experiment [6].
For the compound `Cc1cc(Nc2cc(N3CCC[C@@H](C(=O)NCc4ccc(OC(F)(F)F)cc4)C3)ccn2)ccc1NC1CCN(C)CC1`, the IC50 was 6.51 µM in [3], 13.5 µM in experiment [4], greater than 10 µM in experiment [5] and 10.4 µM in experiment [6].
On to `COc1cc(Nc2cc(N3CCC[C@H](C(=O)NCc4ccc(C)cc4)C3)ccn2)cc(OC)c1OC`, for which the IC50 in experiment [3] was found to be 12.7 µM; in experiment [4] it was 24.5 µM; in [5], 12.1 µM; in experiment [6] it was 27.8 µM.
As for `COc1ccc(CNC(=O)[C@H]2CCCN(c3ccnc(Nc4cnn(C5CCN(C)CC5)c4)c3)C2)cc1OC`, the IC50 in [3] was greater than 100 µM; in experiment [4], greater than 100 µM; in experiment [7], “Not Active”; in experiment [6], greater than 100 µM.
